In ChEMBL document CHEMBL4622971, “The Optimization of a Novel, Weak Bromo and Extra Terminal Domain (BET) Bromodomain Fragment Ligand to a Potent and Selective Second Bromodomain (BD2) Inhibitor” (J Med Chem, 2020):

Legend:
[1] = Distribution coefficient, logD of the compound at pH 7.4 by chromatography; assay type: physicochemical
[2] = Intrinsic clearance in human hepatocytes at 0.5 uM incubated for 120 mins by LC-MS/MS analysis; assay type: ADME, cell-based, Hepatocyte; settings: 2 h
[3] = Intrinsic clearance in rat hepatocytes at 0.5 uM incubated for 60 mins by LC-MS/MS analysis; assay type: ADME, cell-based, Hepatocyte; settings: 1 h
[4] = Volume of distribution at steady state in male Wistar Han rat at 1 mg/kg, iv measured up to 7 hrs by LC-MS/MS analysis; assay type: ADME, organism-based; settings: in vivo, read-out: Vdss
[5] = Dose normalized AUC in male Wistar Han rat at 3 mg/kg, po measured up to 7 hrs by LC-MS/MS analysis; assay type: ADME, organism-based; settings: in vivo
[6] = Half life in male Wistar Han rat at 1 mg/kg, iv measured up to 7 hrs by LC-MS/MS analysis; assay type: ADME, organism-based; settings: in vivo
[7] = Blood clearance in male Wistar Han rat at 1 mg/kg, iv measured up to 7 hrs by LC-MS/MS analysis; assay type: ADME, organism-based; settings: whole blood
[8] = Intrinsic clearance in dog hepatocytes at 0.5 uM incubated for 120 mins by LC-MS/MS analysis; assay type: ADME, cell-based, Canis lupus familiaris, Hepatocyte; settings: 2 h
[9] = Half life in male Wistar Han rat at […], iv measured up to 7 hrs by LC-MS/MS analysis; settings: in vivo
[10] = Volume of distribution at steady state in male Wistar Han rat at […], iv measured up to 7 hrs by LC-MS/MS analysis; settings: in vivo, read-out: Vdss
[11] = Blood clearance in male Wistar Han rat at […], iv measured up to 7 hrs by LC-MS/MS analysis; settings: whole blood
[12] = Intrinsic clearance in human liver microsomes at 0.5 uM pre-incubated up to 45 mins before NADPH addition by LC-MS/MS analysis; assay type: ADME, Microsome
[13] = Intrinsic clearance in Wistar Han rat liver microsomes at 0.5 uM pre-incubated up to 45 mins before NADPH addition by LC-MS/MS analysis; assay type: ADME, Microsome
[14] = Oral bioavailability in male Wistar Han rat at 3 mg/kg measured up to 7 hrs by LC-MS/MS analysis; assay type: ADME, organism-based; settings: in vivo
[15] = Blood clearance in beagle dog at 10.5 mg/kg, iv measured up to 7 hrs by LC-MS/MS analysis; assay type: ADME, organism-based, Canis lupus familiaris; settings: whole blood
[16] = Half life in beagle dog at 10.5 mg/kg, iv measured up to 7 hrs by LC-MS/MS analysis; assay type: ADME, organism-based, Canis lupus familiaris; settings: in vivo
[17] = Volume of distribution at steady state in beagle dog at 10.5 mg/kg, iv measured up to 7 hrs by LC-MS/MS analysis; assay type: ADME, organism-based, Canis lupus familiaris; settings: in vivo, read-out: Vdss
[18] = Oral bioavailability in beagle dog at 10.5 mg/kg, iv measured up to 7 hrs by LC-MS/MS analysis; assay type: ADME, organism-based, Canis lupus familiaris; settings: in vivo

Molecule `CNC(=O)c1cc(C(=O)NC2CC2)cn(CC2CCOCC2)c1=O` has a chromatographic logD [1] of 1.5.

In the case of `CNC(=O)c1cc(C(=O)NC(C)C)cn(Cc2ccccc2)c1=O`, the chromatographic logD [1] is reported as 3.6.

With `CNC(=O)c1cc(C(=O)NC2CCC2)cn(Cc2ccncc2)c1=O` the chromatographic logD [1] was 1.7.

`CNC(=O)c1cc(C(=O)NC)c(=O)n(Cc2ccccc2)c1` gave a chromatographic logD [1] of 2.4.

Molecule `CNC(=O)c1cc(C(=O)NC2CCOCC2)cn(Cc2ccccc2)c1=O` has a chromatographic logD [1] of 2.8.

`CNC(=O)c1cc(C(=O)NC2CC2)cn(Cc2ccc(OC)cc2)c1=O` gave a chromatographic logD [1] of 3.

Molecule `CNC(=O)c1ccc(=O)n(Cc2ccccc2)c1` has a chromatographic logD [1] of 1.6.

In the case of `CNC(=O)c1cc(C(=O)NC2CC2)cn(Cc2cccc3[nH]c(C)nc23)c1=O`, the chromatographic logD [1] is reported as 1.5.

With `CNC(=O)c1cc(C(=O)NC2CC2)cn(Cc2cccc(F)c2)c1=O` the chromatographic logD [1] was 3.2.

In the case of `CNC(=O)c1cccn(Cc2ccccc2)c1=O`, the chromatographic logD [1] is reported as 3.

Work on `CNC(=O)c1cc(C(=O)NCCC2CCOCC2)cn(Cc2ccccc2)c1=O` yielded a chromatographic logD [1] of 3.6.

With `CNC(=O)c1cc(C(=O)NC2CC2)cn(CC2CCCCC2)c1=O` the chromatographic logD [1] was 4.

For `CNC(=O)c1cc(C(=O)NC2CC2)cn(Cc2cccc3[nH]ccc23)c1=O`, the CLH [2] was < 0.45 mL/min/g, the chromatographic logD [1] was 2.9 and the CLH [3] was 1.66 to 1.7 mL/min/g. It also gave a Vd [4] of 1.3 L/kg, an AUC/dose [5] of 23.6 kg·min/L and a half-life [6] of 48 min. For the same molecule, the clearance [7] was 23 mL/min/kg and the CLH [8] was < 1.26 mL/min/g.

In the case of `CNC(=O)c1cc(C(=O)NCCC(C)C)cn(Cc2ccccc2)c1=O`, the chromatographic logD [1] is reported as 4.8.

With `CNC(=O)c1cc(C(=O)NC2CC2)cn([C@H](C)c2ccccc2)c1=O` the CLH [2] was < 0.87 mL/min/g, the chromatographic logD [1] was 3.5 and the CLH [3] was 1.5 mL/min/g. It also gave a half-life at 7 h [9] of 24 min, a Vd at 7 h [10] of 1.6 L/kg and a clearance at 7 h [11] of 72 mL/min/kg.

`CNC(=O)c1cc(C(=O)NCCOC)cn(Cc2ccccc2)c1=O` gave a chromatographic logD [1] of 2.7.

For `CNC(=O)c1cc(C(=O)NC2CC2)cn(CC2CCCOC2)c1=O` (racemic), the chromatographic logD [1] was 2.

`CCNC(=O)c1cccn(Cc2ccccc2)c1=O` gave a chromatographic logD [1] of 3.7.

For `CNC(=O)c1cc(C(=O)NC2CC2)cn(Cc2cccc3occc23)c1=O`, the chromatographic logD [1] was 3.4.

`CNC(=O)c1cc(C(=O)NC2CCC2)cn(Cc2cccc(NC)c2)c1=O` showed a chromatographic logD [1] of 3.6.

`CNC(=O)c1cc(C(=O)NC2CC2)cn(CC2CCCCO2)c1=O` (racemic) gave a chromatographic logD [1] of 2.6.

Work on `CNC(=O)c1cc(C(=O)NC2CCC2)cn(Cc2ccccc2)c1=O` yielded a chromatographic logD [1] of 3.8.

With `CNC(=O)c1cc(C(=O)NCCCC2CNCCO2)cn(Cc2ccccc2)c1=O` (racemic) the chromatographic logD [1] was 1.4.

With `CNC(=O)c1cc(C(=O)NC2CC2)cn(Cc2ccccc2F)c1=O` the chromatographic logD [1] was 3.

`CNC(=O)c1cc(C(=O)NC2CC2)cn(Cc2cccc(C#N)c2)c1=O` showed a chromatographic logD [1] of 2.6.

For `CNC(=O)c1ccc(=O)n(Cc2cc(Br)ccc2F)c1`, the chromatographic logD [1] was 2.6, the CLH [12] was 0.53 mL/min/g and the CLH [13] was 0.76 mL/min/g.

In the case of `CNC(=O)c1cc(C(=O)NC2CC2)cn(Cc2cccc3cn[nH]c23)c1=O`, the chromatographic logD [1] is reported as 2.2.

`CNC(=O)c1cc(C(=O)NC2CC2)cn(Cc2cccc(CCN3CCOCC3)c2)c1=O` showed a chromatographic logD [1] of 2.3.

With `CNC(=O)c1cc(C(=O)NC2CC2)cn(Cc2cccc3[nH]ncc23)c1=O` the CLH [2] was < 0.45 mL/min/g, the chromatographic logD [1] was 1.5 and the CLH [3] was < 0.8 mL/min/g. For the same molecule, the Vd [4] was 1.2 L/kg, the bioavailability [14] was 14% and the half-life [6] was 24 min. The clearance [7] was 42 mL/min/kg.

`CNC(=O)c1cc(C(N)=O)cn(Cc2ccccc2)c1=O` showed a chromatographic logD [1] of 2.

For `CNC(=O)c1cc(C(=O)NCCC2CCCNC2)cn(Cc2ccccc2)c1=O` (stereo not drawn), the chromatographic logD [1] was 1.6.

`CNC(=O)c1cc(C(=O)NC2CC2)cn(Cc2cccc(OC)c2)c1=O` showed a chromatographic logD [1] of 3.

`CNC(=O)c1cc(C(=O)NC2CC2)cn(Cc2ccc(C)cc2)c1=O` showed a chromatographic logD [1] of 3.5.

Molecule `CNC(=O)c1cc(C(=O)NC2CC2)cn(Cc2ccc3nc[nH]c3c2)c1=O` has a chromatographic logD [1] of 1.2.

In the case of `CCNC(=O)c1cc(C(=O)NC)c(=O)n(Cc2ccccc2)c1`, the CLH [2] is reported as < 0.87 mL/min/g, the chromatographic logD [1] is reported as 3 and the CLH [3] is reported as < 0.8 mL/min/g. For the same molecule, the Vd [4] was 0.8 L/kg, the bioavailability [14] was 104% and the half-life [6] was 36 min. The clearance [7] was 12 mL/min/kg and the CLH [8] was < 1.26 mL/min/g.

Molecule `CNC(=O)c1cc(C(=O)NC2CCC2)cn(Cc2ccccn2)c1=O` has a chromatographic logD [1] of 2.2.

`CNC(=O)c1cc(C(=O)NC2CC2)cn(Cc2cccc3cc[nH]c23)c1=O` showed a chromatographic logD [1] of 3.7.

With `CNC(=O)c1cc(C(=O)NC2CC2)cn(Cc2ccccc2)c1=O` [GSK620] the CLH [2] was < 0.45 mL/min/g, the chromatographic logD [1] was 3.1 and the CLH [3] was 0.95 mL/min/g. For the same molecule, the Vd [4] was 0.8 L/kg, the clearance [15] was 2 mL/min/kg and the half-life [16] was 342 min. It also gave a bioavailability [14] of 67%, a Vd [17] of 1 L/kg and a half-life [6] of 66 min. The clearance [7] was 12 mL/min/kg, the CLH [8] was < 1.26 mL/min/g and the bioavailability [18] was 57%.

For `CNC(=O)c1cc(C(=O)NC2CC2)cn(Cc2cccc3c2CCN3)c1=O`, the CLH [2] was < 0.45 mL/min/g, the chromatographic logD [1] was 2.1 and the CLH [3] was < 0.8 mL/min/g. The Vd [4] was 0.9 L/kg, the bioavailability [14] was 53% and the half-life [6] was 36 min. The clearance [7] was 16 mL/min/kg and the CLH [8] was < 1.26 mL/min/g.

With `CNC(=O)c1cc(C(=O)NC2CC2)cn(Cc2nccc3[nH]ccc23)c1=O` the chromatographic logD [1] was 1.7.

Work on `CNC(=O)c1cc(C(=O)NC2CC2)cn(Cc2ccc(F)cc2)c1=O` yielded a chromatographic logD [1] of 3.2.

Work on `CNC(=O)c1cc(C(=O)NC2CC2)c(C)n(Cc2ccccc2)c1=O` yielded a chromatographic logD [1] of 2.9.

Molecule `CNC(=O)c1cc(C(=O)NCC(C)C)cn(Cc2ccccc2)c1=O` has a chromatographic logD [1] of 4.3.

`CNC(=O)c1cc(C(=O)NC2CCC2)cn(Cc2cccnc2)c1=O` showed a chromatographic logD [1] of 1.8.

With `CNC(=O)c1cc(C(=O)NC2CC2)cn(Cc2cccc([C@@H](C)O)c2)c1=O` the CLH [2] was < 0.45 mL/min/g, the chromatographic logD [1] was 2.2 and the CLH [3] was 3 mL/min/g. It also gave a Vd [4] of 1.7 L/kg, a half-life [6] of 24 min and a clearance [7] of 74 mL/min/kg. For the same molecule, the CLH [8] was < 1.26 mL/min/g.

Work on `CNC(=O)c1cc(C(=O)NC2CC2)cn(Cc2cccc(C)c2)c1=O` yielded a chromatographic logD [1] of 3.6.

`CNC(=O)c1cc(C(=O)NCCO)cn(Cc2ccccc2)c1=O` showed a chromatographic logD [1] of 1.9.
